The source of these data is PubChem BioAssay (NCI).

SMILES strings stand for the structures.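 A five-concentration, 48-hour dose response in 96-well plates underlies each endpoint, interpolated linearly between surrounding concentrations. At the TGI there is no net growth.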 Some results are limits rather than exact numbers.

Some test systems named below: SK-MEL-2 melanoma; SNB-19 CNS; NCI-H460 lung; COLO 205 colon; MALME-3M melanoma; K-562 leukemia; HCT-15 colon; OVCAR-4 ovarian; MDA-MB-435; MCF7 breast; NCI-H226 lung; SNB-75 CNS; SK-OV-3 ovarian; TK-10 renal; HT29 colon; RXF 393 renal.
Holding throughout (assay): growth of human tumour cells (NCI), 48 h

For the compound `Oc1[nH]c2ccccc2c1C1=Nc2ccccc2/C1=N\OCCOC1OCC(O)C(O)C1O` (centres undefined), the TGI in the experiment on SK-MEL-2 melanoma, in the experiment with SNB-19 CNS, with NCI-H460 lung, in the experiment with COLO 205 colon, in the experiment with MALME-3M melanoma and in the experiment with K-562 leukemia was above 100 µM throughout. For the same compound, the TGI with HCT-15 colon, with OVCAR-4 ovarian, in the experiment on MDA-MB-435, in the experiment on MCF7 breast, with NCI-H226 lung and in the experiment with SNB-75 CNS was above 100 µM in each case. Besides, the TGI was 7.99 µM with SK-OV-3 ovarian, above 100 µM with TK-10 renal, above 100 µM in the experiment on HT29 colon and above 100 µM with RXF 393 renal.

Consider `CC12CC(=O)Nc3ccccc3N1C(c1ccccc1)=NO2` (centres undefined), for which the TGI in the experiment with SK-MEL-2 melanoma, with SNB-19 CNS, in the experiment with NCI-H460 lung, in the experiment with COLO 205 colon, in the experiment with MALME-3M melanoma and in the experiment with K-562 leukemia was above 100 µM each time. Also, the TGI in the experiment with HCT-15 colon, with OVCAR-4 ovarian, in the experiment on MDA-MB-435, in the experiment on MCF7 breast, in the experiment with NCI-H226 lung and in the experiment on SNB-75 CNS was above 100 µM in each case. Further, the TGI in the experiment on SK-OV-3 ovarian, in the experiment on TK-10 renal, with HT29 colon and in the experiment on RXF 393 renal was above 100 µM each time.

Take `CO/N=C\c1ccc2c(c1)Sc1ccccc1O2`: the TGI with SK-MEL-2 melanoma, in the experiment on SNB-19 CNS, with NCI-H460 lung, with COLO 205 colon, in the experiment with MALME-3M melanoma and with K-562 leukemia was above 100 µM in each case. Further, the TGI with HCT-15 colon, with OVCAR-4 ovarian, with MDA-MB-435, with MCF7 breast, with NCI-H226 lung and with SNB-75 CNS was above 100 µM throughout. Moreover, the TGI in the experiment with SK-OV-3 ovarian, with TK-10 renal, in the experiment with HT29 colon and in the experiment with RXF 393 renal was above 100 µM throughout.

As for `CCC(C)C(N)C(=O)N/N=C\c1c2c(nc3ccccc13)-c1cc3c(c(=O)n1C2)COC(=O)[C@]3(O)CC` (some centres undefined), the TGI is 6.59 µM in the experiment on SK-MEL-2 melanoma; 0.69 µM in the experiment with SNB-19 CNS; 1.5 µM in the experiment with NCI-H460 lung; above 51.6 µM in the experiment on COLO 205 colon; 19.7 µM with MALME-3M melanoma; above 45.1 µM in the experiment with K-562 leukemia. In addition, the TGI in the experiment with HCT-15 colon is above 100 µM; with OVCAR-4 ovarian, 52.6 µM; in the experiment on MDA-MB-435 it was above 81 µM; in the experiment with MCF7 breast, 1.61 µM; with NCI-H226 lung, 1.66 µM; in the experiment with SNB-75 CNS, 13.3 µM. Moreover, the TGI with SK-OV-3 ovarian was above 64.5 µM; in the experiment with TK-10 renal it was above 100 µM; with HT29 colon, above 100 µM; in the experiment on RXF 393 renal, 0.218 µM.

With `CC12CCCCC1=C(F)C(F)(F)S2` (centres undefined), the TGI in the experiment on SK-MEL-2 melanoma was above 100 µM; in the experiment on SNB-19 CNS, above 100 µM; in the experiment on NCI-H460 lung it was above 100 µM; in the experiment on COLO 205 colon, 40.2 µM; in the experiment on MALME-3M melanoma, 58.6 µM; with K-562 leukemia, 59.2 µM. For the same compound, the TGI with HCT-15 colon is 76.7 µM; in the experiment with OVCAR-4 ovarian, above 100 µM; in the experiment on MDA-MB-435, above 86.6 µM; with MCF7 breast it was above 79.6 µM; in the experiment on NCI-H226 lung it was above 100 µM; in the experiment on SNB-75 CNS it was above 100 µM. Also, the TGI is above 100 µM in the experiment with SK-OV-3 ovarian, 69.9 µM with TK-10 renal, 56.5 µM with HT29 colon and above 51.8 µM in the experiment on RXF 393 renal.

In the case of `COc1ccc(-c2oc3cc(OC)c(OC)c(O)c3c(=O)c2OC)cc1`, the TGI in the experiment with SK-MEL-2 melanoma, in the experiment with SNB-19 CNS, in the experiment on NCI-H460 lung, in the experiment on COLO 205 colon, in the experiment with MALME-3M melanoma and with K-562 leukemia was above 100 µM throughout. Also, the TGI in the experiment with HCT-15 colon was above 100 µM; in the experiment with OVCAR-4 ovarian, above 100 µM; in the experiment with MDA-MB-435 it was above 100 µM; in the experiment with MCF7 breast, above 100 µM; in the experiment on NCI-H226 lung, above 100 µM; in the experiment with SNB-75 CNS, 37.4 µM. Further, the TGI in the experiment on SK-OV-3 ovarian was above 100 µM; in the experiment with TK-10 renal, above 100 µM; in the experiment with HT29 colon, above 100 µM; with RXF 393 renal, 78.8 µM.

Take `O=Cc1ccc(OC[C@H]2COC(=O)N2)cc1`: the TGI in the experiment with SK-MEL-2 melanoma, in the experiment with SNB-19 CNS, in the experiment on NCI-H460 lung, in the experiment on COLO 205 colon, in the experiment on MALME-3M melanoma and with K-562 leukemia was above 100 µM each time. Besides, the TGI in the experiment on HCT-15 colon, in the experiment with OVCAR-4 ovarian, with MDA-MB-435, with MCF7 breast, in the experiment on NCI-H226 lung and in the experiment with SNB-75 CNS was above 100 µM throughout. For the same compound, the TGI in the experiment with SK-OV-3 ovarian, in the experiment on TK-10 renal, in the experiment on HT29 colon and in the experiment with RXF 393 renal was above 100 µM each time.

As to `Clc1ccc2c(NCCCCN3OC3c3ccccc3)ccnc2c1` (centres undefined), the TGI in the experiment with SK-MEL-2 melanoma is 11.1 µM; in the experiment with SNB-19 CNS it was 18.9 µM; with NCI-H460 lung, 21.9 µM; with COLO 205 colon, 7.12 µM; with MALME-3M melanoma it was 16 µM; in the experiment on K-562 leukemia, 4.92 µM. Also, the TGI in the experiment on HCT-15 colon was 23.5 µM; in the experiment on OVCAR-4 ovarian, 12 µM; in the experiment on MDA-MB-435, 14.5 µM; in the experiment on MCF7 breast it was 17.5 µM; with NCI-H226 lung, 37.6 µM; in the experiment on SNB-75 CNS, 11.4 µM. In addition, the TGI came to 34.5 µM with SK-OV-3 ovarian, 22 µM in the experiment on TK-10 renal, 10.9 µM with HT29 colon and 12 µM in the experiment with RXF 393 renal.

In the case of `COc1c2c(nc3ccccc13)-c1cc(C(CC(=O)OC(C)(C)C)C(=O)OC(C)C)c(CO)c(=O)n1C2` (centres undefined), the TGI with SK-MEL-2 melanoma was above 100 µM; with SNB-19 CNS, above 100 µM; with NCI-H460 lung, above 86.1 µM; in the experiment with COLO 205 colon, above 100 µM; in the experiment with MALME-3M melanoma it was above 100 µM; in the experiment on K-562 leukemia it was above 100 µM. The TGI with HCT-15 colon is above 100 µM; in the experiment with OVCAR-4 ovarian, above 100 µM; in the experiment with MDA-MB-435, above 100 µM; with MCF7 breast, 19.3 µM; in the experiment with NCI-H226 lung, above 100 µM; in the experiment with SNB-75 CNS, above 100 µM. In addition, the TGI in the experiment on SK-OV-3 ovarian, in the experiment with TK-10 renal, in the experiment on HT29 colon and with RXF 393 renal was above 100 µM throughout.

`O=C(Cn1cc(Br)c(=O)[nH]c1=O)c1ccc(-c2ccccc2)cc1`: the TGI in the experiment on SK-MEL-2 melanoma is above 17.3 µM; with SNB-19 CNS, 13.2 µM; with NCI-H460 lung it was above 48 µM; in the experiment with COLO 205 colon, above 49.6 µM; in the experiment on MALME-3M melanoma, above 100 µM; with K-562 leukemia, above 17.3 µM. Moreover, the TGI in the experiment on HCT-15 colon was 39.7 µM; in the experiment on OVCAR-4 ovarian, above 100 µM; with MDA-MB-435, above 55.3 µM; in the experiment with MCF7 breast it was above 100 µM; with NCI-H226 lung, above 100 µM; in the experiment on SNB-75 CNS it was 6.51 µM. Further, the TGI in the experiment on SK-OV-3 ovarian, in the experiment with TK-10 renal, in the experiment with HT29 colon and with RXF 393 renal was above 100 µM each time.

With `O=C(c1cccs1)c1nccc2c1cnc1ccccc12`, the TGI with SK-MEL-2 melanoma, in the experiment on SNB-19 CNS, in the experiment with NCI-H460 lung, with COLO 205 colon, with MALME-3M melanoma and in the experiment on K-562 leukemia was above 100 µM in each case. The TGI with HCT-15 colon is above 100 µM; with OVCAR-4 ovarian it was above 100 µM; in the experiment on MDA-MB-435, above 100 µM; in the experiment on MCF7 breast, 72.5 µM; with NCI-H226 lung it was above 100 µM; in the experiment with SNB-75 CNS, above 100 µM. Also, the TGI was above 100 µM in the experiment with SK-OV-3 ovarian, above 100 µM in the experiment with TK-10 renal, above 100 µM with HT29 colon and 21.2 µM in the experiment with RXF 393 renal.

For the compound `CC(C)(C)C(=O)Oc1ccc(/C=C/C(=O)c2ccc(OC(=O)C(C)(C)C)cc2)cc1`, the TGI in the experiment with SK-MEL-2 melanoma was above 100 µM; with SNB-19 CNS, above 100 µM; in the experiment on NCI-H460 lung, above 100 µM; with COLO 205 colon it was above 100 µM; in the experiment with MALME-3M melanoma, above 100 µM; in the experiment with K-562 leukemia, 86.7 µM. Moreover, the TGI in the experiment on HCT-15 colon, with OVCAR-4 ovarian, with MDA-MB-435, with MCF7 breast, in the experiment with NCI-H226 lung and with SNB-75 CNS was above 100 µM throughout. Also, the TGI with SK-OV-3 ovarian was above 100 µM; in the experiment with TK-10 renal, above 100 µM; in the experiment with HT29 colon, above 100 µM; with RXF 393 renal it was 87.3 µM.

Take `CC(=O)C(C(=O)c1ccc(C)cc1)[C@H]1OC(C)(C)O[C@H]1[C@H]1COC(C)(C)O1` (some centres undefined): the TGI in the experiment with SK-MEL-2 melanoma is 9.52 µM; with SNB-19 CNS, 17.3 µM; in the experiment on NCI-H460 lung it was 17.2 µM; in the experiment on COLO 205 colon, 18.7 µM; with MALME-3M melanoma it was 18.4 µM; in the experiment with K-562 leukemia, above 50 µM. Besides, the TGI in the experiment with HCT-15 colon is 31.6 µM; with OVCAR-4 ovarian it was 9.37 µM; with MDA-MB-435 it was 9.55 µM; in the experiment on MCF7 breast, 8.68 µM; with NCI-H226 lung, 29.2 µM; in the experiment on SNB-75 CNS it was 10.8 µM. Further, the TGI with SK-OV-3 ovarian came out at 18.4 µM; in the experiment with TK-10 renal, 14.5 µM; in the experiment with HT29 colon it was 9.35 µM; in the experiment with RXF 393 renal, 9.01 µM.

In the case of `CCOC(=O)C(=CNc1ccc(N(C2=NCC(C)S2)c2ccc(F)c(Cl)c2)cc1)C(=O)OCC` (centres undefined), the TGI in the experiment with SK-MEL-2 melanoma was 43.7 µM; in the experiment with SNB-19 CNS, 54.5 µM; with NCI-H460 lung it was 49.7 µM; with COLO 205 colon, 33.3 µM; with MALME-3M melanoma it was 39.4 µM; in the experiment with K-562 leukemia it was above 100 µM. For the same compound, the TGI in the experiment with HCT-15 colon stood at 36.1 µM; with OVCAR-4 ovarian, 65.3 µM; with MDA-MB-435, 55.9 µM; in the experiment with MCF7 breast it was 53.9 µM; with NCI-H226 lung, 36.6 µM; in the experiment with SNB-75 CNS it was 43.7 µM. The TGI in the experiment with SK-OV-3 ovarian came to 70.7 µM; in the experiment on TK-10 renal, 57.1 µM; in the experiment on HT29 colon, 34.7 µM; in the experiment with RXF 393 renal, 21.3 µM.
